# Measurements as given in patent US20250084056A1, “SUBSTITUTED OXOISOINDOLINYL PIPERIDINE-2,6-DIONE COMPOUNDS” (BRISTOL-MYERS SQUIBB COMPANY, priority 2023, published 2025).
# Legend:
# [1] = tested on: NIHOVCAR3 ovarian adenocarcinoma xenograft model; experiment: In vivo xenograft tumor efficacy study, NIHOVCAR3; set-up: species or system mice; conditions: OVCAR3 xenografts, repeated dosing
# Procedure: The anti-cancer efficacy of Example 35 was evaluated in xenograft models by measuring the reduction in tumor volume in animals treated with Example 35 compared to vehicle control animals. First, 5-10×10^6 tumor cells/animal in a 1:1 Matrigel® mix (0.2 mL total volume) were injected subcutaneously into female NSG mice (for NIHOVCAR3) and SCID mice (for HCC1569). Both strains of mice were purchased from Jackson Laboratory. Once tumors reached ˜150-200 mm^3, animals were randomized into groups of 8-10 animals/treatment arm for efficacy studies. Example 35 was administered via oral gavage (PO) at indicated doses and regimens (Table 7). Tumor growth and body weight were measured twice/week during the course of the study to evaluate efficacy and signs of toxicity.
# Example 35 was formulated in 10% ethanol, 10% Vitamin E—TPGS, 30% propylene glycol, 50% PEG400 and administered by oral gavage (final volume 0.2 mL) at the doses indicated in Table 7. […]
# The efficacy for each treated arm at different dose levels were calculated using the following formula: % ΔT/ΔC=[(TVT−TVT0)/(TVC−TVC0)]×100%. […] The percentage of tumor growth inhibition was calculated from the formula: % TGI=[100%−(% ΔT/ΔC)]. […]
# Example 35 was evaluated for in vivo single-agent efficacy against the HCC1569 breast carcinoma xenograft model and NIHOVCAR3 ovarian adenocarcinoma xenograft model.
# [2] = tested on: MKN1 gastric carcinoma xenograft model; experiment: In vivo xenograft tumor efficacy study, MKN1; set-up: species or system mice
# Phospho-Rb (Ser807/811) = experiment: Phospho-Retinoblastoma (pRB) Cellular Assay; type: cell-based; conditions: Homo sapiens, OVCAR-3, NIH OVCAR3 cells, 24 hours
# In short: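 OVCAR3 cells seeded overnight, then dosed with serial dilutions for 24 h at 37° C. Lysed with kit mix plus phosphatase inhibitor, ≥4 h at room temperature, read on EnVision; 100% response set by reference compound at 10 μM, giving IC50 and Ymax.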
compound,measurement,setting,value
"COc1c(COC(=O)Nc2ccc(Oc3ccc(F)c(F)c3)cc2)ccc2c1C(=O)N([C@H]1CCC(=O)NC1=O)C2 (single isomer, unassigned) [Example 35, {2-[(3 S)-2,6-dioxopiperidin-3-yl]-4-methoxy-3-oxo-2,3-dihydro-1H-isoindol-5-yl}methyl N-[4-(3,4-difluorophenoxy)phenyl]carbamate]",anti-tumor activity,[1],dose-dependent anti-tumor activity
same,tumor growth inhibition (TGI),"[2]; MKN1 gastric carcinoma xenograft, 30 mpk, QDx28 (as printed in text)",95%
same,"Tumor efficacy, TGI (tumor growth inhibition)","[2]; MKN1 stomach, 10 mg/kg PO, QDx28",95% TGI
same,anti-tumor activity,"[2]; MKN1 xenografts, repeated dosing",dose-dependent anti-tumor activity
same,IC50,Phospho-Rb (Ser807/811); concentration giving 50% response,85 nM
same,Emax,"Phospho-Rb (Ser807/811); maximum response, reference compound at 10 μM = 100%, read-out: pRB Ymax",114%
